Laboratory results reported in patent US20120301468A1, “ANTI-MN ANTIBODIES AND METHODS OF USING SAME” (BAYER HEALTHCARE LLC, priority 2005, published 2012).
Like-named read-outs stand apart in the source and are kept apart here.

Experiments:
[1] = tested on: MaTu human mammary carcinoma xenograft; conditions: for tumors showing signs of re-growth: ˜3 months after cessation, 10 mice per group; for animals remained tumor-free: ˜90 days after cessation
Procedure: Anti-MN antibodies were conjugated to cytotoxic small molecules using protocols that are known in the art (e.g., Liu, et al., Proc. Natl. Acad. Sci. 93:8618-8623, 1996). Human mammary xenograft, MaTu cells were maintained as adherent cultures in RPMI supplemented with 10% FBS. Ncr nude mice (8-12 weeks of age) were inoculated subcutaneously in the right flank with 5×10^6 cells in 0.1 mL of 80% matrigel/20% HBSS. When tumors reached an average size of ˜180 mg (6 days), treatment was initiated. Monoclonal antibodies conjugated to cytotoxic small molecules were administered i.v. once every four days (Q4Dx3) at a dose of 10 mg/kg. Control mice were treated with PBS or an unconjugated monoclonal antibody. Daily examinations into the health status of each animal were conducted. Each experimental group consisted of 10 mice and the dosing volume was 0.1 mL/10 g body weight. The length and width of each tumor was measured by using an electronic caliper 2-3 times per week and tumor weights (mg) were calculated based on the formula of [length (mm)×width (mm)^2]/2. All data, including daily observations, obtained throughout the course of the study were documented. Tumor growth inhibition (TGI) was calculated as 1−T/C×100, where T=final tumor weights from a treated group, and C=final tumor weights from the control group.
The in vivo anti-tumor effect of 3ee9/MMAE was examined in 6 different human xenograft tumor models. These models were established through subcutaneous implantation of human tumor cells into female athymic NCr (nu/nu) mice (Taconic, N.Y.). The human tumor xenograft models evaluated included the MaTu human mammary carcinoma model, the HT-29 and Colo-205 human colo-rectal carcinoma (CRC) models, PC3MM2 prostate carcinoma model, the HCT-15 multi-drug resistant (P-gp) CRC model, and the MiaPaCa2 human pancreatic model. PBS was used as a vehicle, and dosing solutions were prepared fresh daily. The dosing volume was 0.1 mL/10 g (10 mL/kg).
The length and width of each tumor were measured using an electronic caliper 2-3 times per week, and tumor weights (mg) were calculated based on the formula of [length (mm)×width (mm)^2]/2. All data, including daily observations, obtained throughout the course of the study were documented in Anti-tumor Data Acquisition System (ADAS). […] Tumor growth inhibition (TGI) was calculated as (1-T/C)×100, where T=final tumor weights from a treated group after the last dose, and C=final tumor weights from the control group after the last dose. In addition, anti-tumor efficacy was measured as the incidence of responses (or responders or regressions) defined as tumors with ≦50% of their initial size. A minimum duration of 7 days is required for a response to be considered durable.
Human mammary xenograft, MaTu cells were maintained as adherent cultures in RPMI supplemented with 10% FBS. NCr nude mice (8-12 weeks of age) were inoculated subcutaneously in the right flank with 5×10^6 cells in 0.1 mL of 80% matrigel/20% HBSS. When tumors reached an average size of ˜180 mg (7 days), treatment was initiated. […] Control mice were treated with PBS or an un-conjugated monoclonal antibody at a dose of 10 mg/kg.
Daily examinations into the health status of each animal were conducted. Each experimental group consisted of 10 mice, and the dosing volume was 0.1 mL/10 g body weight. The length and width of each tumor was measured by using an electronic caliper 2-3 times per week, and tumor weights (mg) were calculated based on the formula of [length (mm)×width (mm)^2]/2. All data, including daily observations, obtained throughout the course of the study were documented. Tumor growth inhibition (TGI) was calculated as 1−T/C×100, where T=final tumor weights from a treated group, and C=final tumor weights from the control group.

tubulin in HT-29 tumors = assay: In vivo mechanism of action, immunohistochemistry of HT-29 tumors; set-up: species or system athymic mice
Procedure: To explore the in vivo mechanism of action of 3ee9/MMAE, tumors were implanted subcutaneously at right flank of the mice with 5×10^6 HT-29 cells. Eight days later, athymic mice bearing HT-29 tumors were treated with vehicle or with 3ee9/MMAE at 1.25 and 5 mg/kg (Q1Dx1). Tumors were collected and fixed in formalin 4 hours and 1, 3 and 5 hours following administration of 3ee9/MMAE. Samples were then embedded in paraffin, sectioned at 5 μm, de-paraffinized, and stained using standard protocol for fluorescent immunohistochemistry of human tissues using mouse antibodies: Anti-α/β-tubulin, Anti-phospho-Histone H3, and DNA. The slides were then observed under a fluorescent microscope, and representative images were taken through three separate color channels.
3ee9/MMAE had little effect in affecting cell mechanism in the 4 hr samples. […] In addition, decreased level of tubulin staining could be observed. These effects were then highly amplified in the day 3 and day 5 samples.

3ee9/MMAE: human anti-MN IgG1 antibody 3ee9 conjugated to Monomethylauristatin E (MMAE)
body weight loss ([1]; 60 mg/kg i.v. Q4Dx3): ~20%
lethality ([1]; 60 mg/kg i.v. Q4Dx3): 10%
maximum tolerated dose (MTD) ([1]; MaTu tumor-bearing mice, i.v. Q4Dx3): 60 mg/kg
therapeutic index (MTD divided by MED) ([1]; MaTu xenograft): ~96
tumor regression ([1]; MaTu, 0.625 mg/kg Q4Dx3): No tumor regression
inhibition of tumor growth ([1]; MaTu, 0.625 mg/kg Q4Dx3, end of dosing): 62%
time tumors remained stable after cessation of treatment ([1]; MaTu, 1 mg/kg Q4Dx3): ~2 weeks
tumors responsive to treatment ([1]; MaTu, 1 mg/kg Q4Dx3): 30%
TGI ([1]; MaTu, 1 mg/kg i.v. Q4Dx3, end of dosing): 67%
animals exhibiting tumor regressions ([1]; MaTu, 1.25 mg/kg Q4Dx3): 80%
inhibition of tumor growth ([1]; MaTu, 1.25 mg/kg Q4Dx3, end of dosing): 81%
animals responded to treatment ([1]; MaTu, 2.5 mg/kg and higher Q4Dx3): 100%
TGI ([1]; MaTu, 3 mg/kg i.v. Q4Dx3, end of dosing): 72%
tumors showing signs of re-growth ([1]; MaTu, 3 mg/kg): 3 tumors
animals remained tumor-free ([1]; MaTu, 3 mg/kg): 70%
TGI ([1]; MaTu, 10 mg/kg i.v. Q4Dx3, end of dosing): 78%
tumors showing signs of re-growth ([1]; MaTu, 10 mg/kg): 1 tumors
animals remained tumor-free ([1]; MaTu, 10 mg/kg): 90%
tolerability ([1]; MaTu, 1, 3 and 10 mg/kg i.v. Q4Dx3): well-tolerated at all doses examined
inhibition of tumor growth ([1]; MaTu, 2.5, 5, 10, 30 and 60 mg/kg Q4Dx3): ~90%
animals responded ([1]; MaTu, 3 and 10 mg/kg Q4Dx3): 100%
minimum efficacious dose (MED) ([1]; MaTu, i.v. Q4Dx3): 0.625 mg/kg
In vivo activity: MED ([1]; Table 4 profile): 1 mg/kg
In vivo activity: MTD ([1]; Table 4 profile): 60 mg/kg
tolerability ([1]; all other treatment groups (0.625 to 30 mg/kg) Q4Dx3): well tolerated
cells affected by treatment in tumors (tubulin in HT-29 tumors; 5 mg/kg Q1Dx1, day 5): almost all cells
effect on cell mechanism in tumors (tubulin in HT-29 tumors; 1.25 and 5 mg/kg Q1Dx1, 4 hr samples): little effect
G2/M arrest, spindle and tubulin staining in tumors (tubulin in HT-29 tumors; 1.25 and 5 mg/kg Q1Dx1, day 1): increased numbers of cells were in G2/M arrest
